Entries after “also recorded” stand apart in the source; their conditions may differ.
Legend:
GABAA receptor subunits = assay: Western blotting of streptavidin-captured GABAA receptor subunits with ligand protection; format: binding, mouse; conditions: AziPm-click (1) 10 μM, protecting ligand 100 μM, UV irradiation; n = 4
Method: (§1) Synaptosomes were resuspended to 1 mg of protein/ml in HEPES buffer medium (in mM: 140 NaCl, 5 KCl, 5 NaHCO3, 1.2 NaH2PO4, 1 MgCl2, 10 glucose, and 10 HEPES (pH 7.4)). […] The samples were allowed to equilibrate for 5 min before being transferred to a parafilm-sealed 1-mm path length quartz cuvette. The sample was then irradiated for 20 min at a peak bandwidth of 350 nm (Rayonet RPR-3500 lamp) ∼6 cm from the light source. Non-irradiated samples were left in the dark at ambient temperature (22–25 °C) for 20 min. All remaining procedures were conducted with restricted light exposure.
To 750 μg of photolabeled or control synaptosome samples, 40 μl of 10% SDS and 2 μl of 5 mM DTT in water were added. Samples were then vortexed, heated for 10 min at 65 °C, and then briefly cooled. Final concentrations of 150 μM azide-biotin (Click Chemistry Tools), 2 mM tris(3-hydroxypropyltriazolylmethyl)amine (Sigma), 1 mM ascorbic acid (Sigma), and 1 mM CuSO4·5H2O (Sigma) were added to each sample and vortexed vigorously. The samples were left in the dark at ambient temperature (22–25 °C) for 1 h with mild agitation. Directly to each sample 4× volume chilled methanol, 1.5× chilled chloroform, and 3× chilled double distilled H2O were added. Samples were vortexed vigorously and centrifuged at 1,400 × g for 30 min at 4 °C. […]

[1] = at even 100-fold higher concentrations than propofol; cited from earlier work
α1β2γ2 GABAA receptors = conditions: heterologously expressed receptors; cited from earlier work
[2] = test system: alkylphenol-binding proteins within synaptosomes; assay: Fluorescent profiling: protection from AziPm-click (1) photolabeling of synaptosomes; set-up: species or system mouse; conditions: propofol 75–375 μM; ketamine 150–450 μM; triplicate
Method: as §1

CC(C)c1cccc(C(C)C)c1F [fropofol, 2-fluoro-1,3-diisopropylbenzene]
protection of GABAA receptor α and β subunits from AziPm-click (1) capture (GABAA receptor subunits): unable to protect
immobilization [1]: did not cause immobilization
activity on GABAA receptor (α1β2γ2 GABAA receptors): did not modulate or disrupt propofol potentiation; also recorded: no activity

CNC1(c2ccccc2Cl)CCCCC1=O (stereo not shown) [ketamine]
fluorescent labeling of synaptosomal proteins by AziPm-click (1) in presence of protecting ligand [2]: no changes in fluorescence intensity

From paper PMC5034043 (The Journal of Biological Chemistry, 2016)
